Experimental data: ChEMBL document CHEMBL1201862, “PubChem BioAssay data set” (2004)
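Growth conditions: 96-well plates. Treatment: test compound, 48 hours, 5 concentrations. Analysis: linear interpolation between bracketing concentrations; unreached endpoints set to highest concentration. Abbreviation: GI50, concentration required for 50% inhibition of growth.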 Active and inactive are the calls of the source. Rule as the data show it: active = GI50 up to about 1.1 µM and inactive = higher.

How the values were obtained:
Experiment in all cases: NCI anticancer screen, dose series, 48 h
NCI/ADR-RES = system: NCI/ADR-RES
SK-OV-3 = system: SK-OV-3
M14 = system: M14
MDA-MB-435 = system: MDA-MB-435
K562 = system: K562
SN12C = system: SN12C
PC-3 = system: PC-3
RPMI-8226 = system: RPMI-8226
HCT-15 = system: HCT-15
NCI-H460 = system: NCI-H460
Hs-578T = system: Hs-578T
SW-620 = system: SW-620
HL-60 = system: HL-60
NCI-H522 = system: NCI-H522
HCC 2998 = system: HCC 2998
MCF7 = system: MCF7
SK-MEL-28 = system: SK-MEL-28
HCT-116 = system: HCT-116
LOX IMVI = system: LOX IMVI
EKVX = system: EKVX

| Compound | GI50 (NCI/ADR-RES) | GI50 (SK-OV-3) | GI50 (M14) | GI50 (MDA-MB-435) | GI50 (K562) | GI50 (SN12C) | GI50 (PC-3) | GI50 (RPMI-8226) | GI50 (HCT-15) | GI50 (NCI-H460) | GI50 (Hs-578T) | GI50 (SW-620) | GI50 (HL-60) | GI50 (NCI-H522) | GI50 (HCC 2998) | GI50 (MCF7) | GI50 (SK-MEL-28) | GI50 (HCT-116) | GI50 (LOX IMVI) | GI50 (EKVX) |
| --- | --- | --- | --- | --- | --- | --- | --- | --- | --- | --- | --- | --- | --- | --- | --- | --- | --- | --- | --- | --- |
| O=C1CC(=O)NC(NNS(=O)(=O)c2ccc(Cl)cc2)=N1 | > 100 µM (inactive) | 58.5 µM (inactive) | > 100 µM (inactive) | > 100 µM (inactive) | > 100 µM (inactive) | > 100 µM (inactive) | > 100 µM (inactive) | > 100 µM (inactive) | > 100 µM | > 100 µM (inactive) | > 100 µM (inactive) | > 100 µM (inactive) | 70.8 µM (inactive) | > 100 µM (inactive) | > 100 µM (inactive) | > 100 µM (inactive) | > 100 µM (inactive) | > 100 µM (inactive) |  |  |
| C/C(=N\NC(=S)Nc1ccc(C)cc1)c1nc2cccnc2[nH]1 | 4.04 µM (inactive) | 4.3 µM (inactive) |  | 2.94 µM (inactive) | 2.9 µM (inactive) | 2.32 µM (inactive) | 1.73 µM (inactive) | 3.01 µM (inactive) | 2.86 µM | 1.32 µM (inactive) | 10.8 µM (inactive) | 3.57 µM (inactive) | 2.22 µM (inactive) | 0.986 µM (active) | 5.47 µM (inactive) | 0.721 µM (active) | 2.86 µM (inactive) | 1.6 µM (inactive) | 1.41 µM (inactive) | 0.61 µM (active) |
| COc1ccc(OC)c2c1C(=O)C(O)=C(Cl)C2=O | > 100 µM (inactive) | > 100 µM (inactive) | > 100 µM (inactive) | > 100 µM (inactive) | > 100 µM (inactive) |  | > 100 µM (inactive) | > 100 µM (inactive) | > 100 µM | > 100 µM (inactive) | > 100 µM (inactive) | > 100 µM (inactive) | > 100 µM (inactive) | > 100 µM (inactive) | > 100 µM (inactive) | > 100 µM (inactive) | > 100 µM (inactive) | > 100 µM (inactive) | > 100 µM (inactive) |  |
| COc1ccc(N(C)S(=O)(=O)c2ccccc2)cc1 | > 100 µM (inactive) | > 100 µM (inactive) | > 100 µM (inactive) | 59.2 µM (inactive) | 28.5 µM (inactive) | > 100 µM (inactive) | 72.1 µM (inactive) | 86.9 µM (inactive) | > 100 µM | 94.8 µM (inactive) | > 100 µM (inactive) | > 100 µM (inactive) | > 100 µM (inactive) | > 100 µM (inactive) | 56 µM (inactive) | > 100 µM (inactive) | > 100 µM (inactive) | > 100 µM (inactive) | > 100 µM (inactive) | > 100 µM (inactive) |
| N=C(N)NS(=O)(=O)c1ccc(NC(=O)c2cccc3c(O)c4ccccc4nc23)cc1 | > 100 µM (inactive) | 58.2 µM (inactive) | > 100 µM (inactive) | > 100 µM (inactive) | 44 µM (inactive) | > 100 µM (inactive) | > 100 µM (inactive) | > 100 µM (inactive) | > 100 µM | > 100 µM (inactive) | > 100 µM (inactive) | > 100 µM (inactive) | > 100 µM (inactive) | > 100 µM (inactive) | > 71.8 µM (inactive) | > 100 µM (inactive) | > 100 µM (inactive) | > 100 µM (inactive) | > 75 µM (inactive) | > 100 µM (inactive) |
| CC(=O)C1(C)CC(C#N)(C#N)C(C#N)=C1N (stereo not drawn) | > 100 µM (inactive) | > 100 µM (inactive) | > 100 µM (inactive) | > 100 µM (inactive) | > 100 µM (inactive) | > 100 µM (inactive) | > 100 µM (inactive) | > 100 µM (inactive) | > 100 µM |  | > 100 µM (inactive) | > 100 µM (inactive) | > 100 µM (inactive) | > 100 µM (inactive) | > 100 µM (inactive) | > 100 µM (inactive) |  | > 100 µM (inactive) | > 100 µM (inactive) | 26.5 µM (inactive) |
| O=C1CCCc2cc3c(cc21)CC1(Cc2ccccc2C1)C3 | 6 µM (inactive) | 5.11 µM (inactive) | 4.33 µM (inactive) | 1.91 µM (inactive) | 1.86 µM (inactive) | 4.52 µM (inactive) | > 100 µM (inactive) | 4.35 µM (inactive) | 3.59 µM |  | 7.59 µM (inactive) |  | 1.84 µM (inactive) | 3.94 µM (inactive) | 16.1 µM (inactive) | 3.9 µM (inactive) |  | 3.9 µM (inactive) | 6.53 µM (inactive) | 9.14 µM (inactive) |
| NCCCCC(NC(=O)C(N)Cc1ccc(O)cn1)C(=O)O (stereo not drawn) | > 100 µM (inactive) |  |  | > 100 µM (inactive) | > 100 µM (inactive) | > 100 µM (inactive) | > 100 µM (inactive) | > 100 µM (inactive) | > 100 µM | > 100 µM (inactive) | > 100 µM (inactive) | > 100 µM (inactive) | > 100 µM (inactive) | > 100 µM (inactive) | > 100 µM (inactive) | > 100 µM (inactive) | > 100 µM (inactive) | > 100 µM (inactive) | > 100 µM (inactive) | > 100 µM (inactive) |
| COC(=O)[C@H](Cc1ccccc1)NC(=O)N(CCC#N)CCCCN(CCC#N)C(=O)N[C@@H](Cc1ccccc1)C(=O)OC | > 100 µM (inactive) | > 100 µM (inactive) | > 100 µM (inactive) | > 100 µM (inactive) | > 100 µM (inactive) | > 100 µM (inactive) | > 100 µM (inactive) | > 100 µM (inactive) | > 100 µM | > 81.8 µM (inactive) | > 100 µM (inactive) | > 100 µM (inactive) |  | > 100 µM (inactive) | > 100 µM (inactive) | > 100 µM (inactive) | > 100 µM (inactive) | > 100 µM (inactive) | > 100 µM (inactive) | > 100 µM (inactive) |
| C(#CP(c1ccccc1)c1ccccc1)P(C#CP(c1ccccc1)c1ccccc1)c1ccccc1 | > 100 µM (inactive) | 2.77 µM (inactive) | 0.798 µM (active) | > 100 µM (inactive) | > 100 µM (inactive) | > 100 µM (inactive) | > 100 µM (inactive) | > 100 µM (inactive) | > 100 µM | > 100 µM (inactive) | > 100 µM (inactive) | > 100 µM (inactive) | > 100 µM (inactive) | > 100 µM (inactive) | > 100 µM (inactive) | > 100 µM (inactive) | > 100 µM (inactive) | > 100 µM (inactive) |  | > 100 µM (inactive) |
| CC(CC(=O)N1C2CC3CCC2(CS1(=O)=O)C3(C)C)[Si](C)(C)C (stereo not drawn) | > 100 µM (inactive) |  | > 100 µM (inactive) | > 100 µM (inactive) | > 100 µM (inactive) | > 100 µM (inactive) | 61.5 µM (inactive) | > 100 µM (inactive) | > 100 µM | > 100 µM (inactive) | > 100 µM (inactive) | > 100 µM (inactive) | > 100 µM (inactive) | > 100 µM (inactive) | > 100 µM (inactive) | > 100 µM (inactive) | > 100 µM (inactive) | > 100 µM (inactive) | > 100 µM (inactive) | > 100 µM (inactive) |
| C=C1C(C[C@@H]2O[C@H]3C[C@H]4O[C@@]5(C[C@@H]6O[C@]7(C[C@H](C)[C@@H]8O[C@@H]9CC(C(O)CO)O[C@@H]9C[C@@H]8O7)C[C@H](C)[C@@H]6O5)C[C@H]4O[C@H]3[C@H](C)[C@H]2O)O[C@@H](CC[C@@H]2O[C@@H](CC[C@@]34CC5O[C@H]6C(O[C@H]7CC[C@H](CC(=O)OC)O[C@@H]7[C@@H]6O3)[C@H]5O4)CC2=C)C[C@H]1C (stereo partly drawn) | 0.00466 µM (active) | 0.000243 µM (active) | 0.000124 µM (active) | < 0.0001 µM (active) | < 0.0001 µM (active) | 0.000211 µM (active) | < 0.0001 µM (active) | < 0.0001 µM (active) | 0.000258 µM | < 0.0001 µM (active) | < 0.0001 µM (active) | < 0.0001 µM (active) | < 0.0001 µM (active) | < 0.0001 µM (active) | < 0.0001 µM (active) | < 0.0001 µM (active) |  | < 0.0001 µM (active) | < 0.0001 µM (active) | 0.000405 µM (active) |
| Nc1ncnc2c1ccn2COC(CO)CO | > 100 µM (inactive) | > 100 µM (inactive) | 79.6 µM (inactive) | 62.8 µM (inactive) | > 100 µM (inactive) | > 100 µM (inactive) | > 100 µM (inactive) | 97.1 µM (inactive) | > 100 µM | > 100 µM (inactive) | > 100 µM (inactive) | > 100 µM (inactive) | 90.6 µM (inactive) | 54.7 µM (inactive) | > 100 µM (inactive) | 92 µM (inactive) | > 100 µM (inactive) | > 100 µM (inactive) | > 100 µM (inactive) | > 100 µM (inactive) |
| COc1cc(/C=C/C(=O)O)ccc1O [FERULATE] | > 100 µM (inactive) |  | > 100 µM (inactive) | > 100 µM (inactive) | > 100 µM (inactive) | > 100 µM (inactive) | > 100 µM (inactive) | > 100 µM (inactive) | > 100 µM | > 100 µM (inactive) | > 100 µM (inactive) | > 100 µM (inactive) | > 100 µM (inactive) | > 100 µM (inactive) | > 100 µM (inactive) | > 100 µM (inactive) | > 100 µM (inactive) | > 100 µM (inactive) | > 100 µM (inactive) | > 100 µM (inactive) |
